Four compounds from ChEMBL document CHEMBL5346892, “Design and synthesis of benzochromene derivatives as AcrB inhibitors for the reversal of bacterial multidrug resistance” (Eur J Med Chem, 2023) can be followed below.

SMILES strings stand for the structures.

Data set [1] can be described thus: Toxicity in Caenorhabditis elegans assessed as survival rate at 128 microg/ml measured after 72 hrs by light microscopic analysis. As to conditions: at 128 µg/mL.
The test system of data set [2] is Escherichia coli. The data set is described as follows: Synergistic antibacterial activity against wild type Escherichia coli BW25113 assessed as erythromycin MIC at 8 microg/ml incubated for 18 hrs by broth dilution assay. The class given is functional. Particulars: dose 8 µg/ml.
In data set [3] the test system is Escherichia coli. Briefly: Synergistic antibacterial activity against wild type Escherichia coli BW25113 assessed as levofloxacin MIC at 16 microg/ml incubated for 18 hrs in presence of colistin by broth dilution assay. It is filed as functional. Particulars: dose 16 µg/ml.
Data set [4] has as its target T1, Multidrug efflux pump subunit AcrB (Escherichia coli (strain K12)) (UniProt P31224).
T1 sequence (whole entry): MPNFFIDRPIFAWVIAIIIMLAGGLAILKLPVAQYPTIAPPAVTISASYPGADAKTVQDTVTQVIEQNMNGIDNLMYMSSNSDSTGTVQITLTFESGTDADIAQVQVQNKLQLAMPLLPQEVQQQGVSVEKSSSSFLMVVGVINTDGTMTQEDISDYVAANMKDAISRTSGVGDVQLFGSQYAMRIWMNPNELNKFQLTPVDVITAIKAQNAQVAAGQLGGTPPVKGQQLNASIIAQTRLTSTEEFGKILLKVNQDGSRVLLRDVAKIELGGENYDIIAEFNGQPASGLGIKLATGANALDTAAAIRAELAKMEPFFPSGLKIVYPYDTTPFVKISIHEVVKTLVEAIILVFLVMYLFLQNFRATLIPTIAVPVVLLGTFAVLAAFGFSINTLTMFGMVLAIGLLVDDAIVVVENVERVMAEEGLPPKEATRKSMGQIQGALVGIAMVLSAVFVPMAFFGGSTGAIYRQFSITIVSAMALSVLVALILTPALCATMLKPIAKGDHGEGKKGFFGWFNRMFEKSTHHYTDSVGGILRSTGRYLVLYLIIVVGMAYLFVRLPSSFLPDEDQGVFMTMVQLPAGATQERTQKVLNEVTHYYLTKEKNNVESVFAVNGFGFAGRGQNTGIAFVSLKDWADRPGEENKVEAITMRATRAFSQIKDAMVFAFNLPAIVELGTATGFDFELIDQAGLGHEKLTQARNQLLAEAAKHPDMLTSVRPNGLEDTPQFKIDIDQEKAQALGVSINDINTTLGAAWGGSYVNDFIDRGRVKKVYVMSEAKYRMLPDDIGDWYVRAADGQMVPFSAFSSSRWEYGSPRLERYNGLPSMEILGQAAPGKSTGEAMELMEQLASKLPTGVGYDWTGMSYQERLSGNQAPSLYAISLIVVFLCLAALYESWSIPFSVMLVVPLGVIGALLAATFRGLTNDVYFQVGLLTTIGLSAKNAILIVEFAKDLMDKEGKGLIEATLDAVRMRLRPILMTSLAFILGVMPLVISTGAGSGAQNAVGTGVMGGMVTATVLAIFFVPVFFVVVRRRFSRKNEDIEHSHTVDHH
Briefly: Inhibition of Escherichia coli BW25113 AcrB assessed as inhibition of nile red efflux at 100 uM incubated for 15 mins.

Data set [5] deals with Escherichia coli. The data set is described as follows: Synergistic antibacterial activity against wild type Escherichia coli BW25113 assessed as levofloxacin MIC at 16 microg/ml incubated for 18 hrs by broth dilution assay. The class given is functional. Particulars: dose 16 µg/ml.
Data set [6] concerns Escherichia coli. The data set is described as follows: Synergistic antibacterial activity against wild type Escherichia coli BW25113 assessed as minocycline MIC at 4 microg/ml incubated for 18 hrs in presence of colistin by broth dilution assay. The class given is functional. As to conditions: dose 4 µg/ml.
The test system of data set [7] is Escherichia coli. Briefly: Synergistic antibacterial activity against wild type Escherichia coli BW25113 assessed as minocycline MIC at 16 microg/ml incubated for 18 hrs by broth dilution assay. It is filed as functional. As to conditions: dose 16 µg/ml.
Data set [8] deals with Escherichia coli. Briefly: Synergistic antibacterial activity against wild type Escherichia coli BW25113 assessed as levofloxacin MIC at 4 microg/ml incubated for 18 hrs in presence of colistin by broth dilution assay. The class given is functional. Particulars: dose 4 µg/ml.
Data set [9] relates to Escherichia coli. The data set is described as follows: Synergistic antibacterial activity against wild type Escherichia coli BW25113 assessed as minocycline MIC at 128 microg/ml incubated for 18 hrs by broth dilution assay. Particulars: dose 128 µg/ml. The class given is functional.
Data set [10] relates to Escherichia coli. The data set is described as follows: Synergistic antibacterial activity against wild type Escherichia coli BW25113 assessed as fold decrease in erythromycin MIC at 8 microg/ml incubated for 18 hrs by checkboard based microplate reader analysis. The class given is functional. Particulars: dose 8 µg/ml.
Data set [11] deals with Escherichia coli. The data set is described as follows: Synergistic antibacterial activity against wild type Escherichia coli BW25113 assessed as erythromycin MIC at 4 microg/ml incubated for 18 hrs in presence of colistin by broth dilution assay. The class given is functional. Particulars: dose 4 µg/ml.
For data set [12], the system named is Escherichia coli. Briefly: Synergistic antibacterial activity against wild type Escherichia coli BW25113 assessed as fold decrease in erythromycin MIC at 16 to 64 microg/ml incubated for 18 hrs by checkboard based microplate reader analysis. The class given is functional. As to conditions: dose 16-64 µg/ml.
For data set [13], the system named is Escherichia coli. Briefly: Synergistic antibacterial activity against wild type Escherichia coli BW25113 assessed as fold decrease in levofloxacin MIC at 64 microg/ml incubated for 18 hrs by checkboard based microplate reader analysis. The class given is functional. As to conditions: dose 64 µg/ml.
The test system of data set [14] is Escherichia coli. Briefly: Synergistic antibacterial activity against wild type Escherichia coli BW25113 assessed as erythromycin MIC at 128 microg/ml incubated for 18 hrs in presence of colistin by broth dilution assay. It is filed as functional. Particulars: dose 128 µg/ml.
The test system of data set [15] is Escherichia coli. The data set is described as follows: Synergistic antibacterial activity against wild type Escherichia coli BW25113 assessed as fold decrease in minocycline MIC at 64 microg/ml incubated for 18 hrs by checkboard based microplate reader analysis. The class given is functional. As to conditions: dose 64 µg/ml.
Data set [16] deals with Escherichia coli. Briefly: Synergistic antibacterial activity against wild type Escherichia coli BW25113 assessed as levofloxacin MIC at 128 microg/ml incubated for 18 hrs in presence of colistin by broth dilution assay. It is filed as functional. As to conditions: dose 128 µg/ml.
Data set [17] deals with Escherichia coli. The data set is described as follows: Synergistic antibacterial activity against wild type Escherichia coli BW25113 assessed as fold decrease in erythromycin MIC at 128 microg/ml incubated for 18 hrs by checkboard based microplate reader analysis. It is filed as functional. Particulars: dose 128 µg/ml.
The test system of data set [18] is Escherichia coli. Briefly: Synergistic antibacterial activity against wild type Escherichia coli BW25113 assessed as minocycline MIC at 2 microg/ml incubated for 18 hrs in presence of colistin by broth dilution assay. It is filed as functional. Particulars: dose 2 µg/ml.
The subject of data set [19] is Escherichia coli. The data set is described as follows: Synergistic antibacterial activity against wild type Escherichia coli BW25113 assessed as erythromycin MIC at 2 microg/ml incubated for 18 hrs in presence of colistin by broth dilution assay. It is filed as functional. Particulars: dose 2 µg/ml.
Data set [20] relates to Escherichia coli. Briefly: Synergistic antibacterial activity against wild type Escherichia coli BW25113 assessed as levofloxacin MIC at 0.5 microg/ml incubated for 18 hrs in presence of colistin by broth dilution assay. The class given is functional. Particulars: dose 0.5 µg/ml.
Data set [21] relates to Escherichia coli. Briefly: Synergistic antibacterial activity against wild type Escherichia coli BW25113 assessed as erythromycin MIC at 0.5 microg/ml incubated for 18 hrs in presence of colistin by broth dilution assay. It is filed as functional. As to conditions: dose 0.5 µg/ml.
Data set [22] relates to Escherichia coli. Briefly: Synergistic antibacterial activity against wild type Escherichia coli BW25113 assessed as levofloxacin MIC at 1 microg/ml incubated for 18 hrs in presence of colistin by broth dilution assay. It is filed as functional. As to conditions: dose 1 µg/ml.
The subject of data set [23] is Escherichia coli. Briefly: Synergistic antibacterial activity against wild type Escherichia coli BW25113 assessed as minocycline MIC at 0.5 microg/ml incubated for 18 hrs in presence of colistin by broth dilution assay. The class given is functional. As to conditions: dose 0.5 µg/ml.
Data set [24] concerns Escherichia coli. Briefly: Synergistic antibacterial activity against wild type Escherichia coli BW25113 assessed as minocycline MIC at 1 microg/ml incubated for 18 hrs in presence of colistin by broth dilution assay. It is filed as functional. As to conditions: dose 1 µg/ml.

As to `CC1(C)CCc2c(C(=O)N3CCOCC3)cc3c(OCCSc4ccc([N+](=O)[O-])cc4)cccc3c2O1`, in data set [1], the survival at 72 h, 128 microg/ml came to 90%. The MIC came out at 16 µg/mL in data set [2]; 0.032 µg/mL in [3]; 0.032 µg/mL in data set [5]; 1 µg/mL in data set [6]; 2 µg/mL in data set [7]; 0.032 µg/mL in [8]. Further, the MIC in data set [9] is 2 µg/mL; in data set [11], 8 µg/mL. Moreover, the inhibition in [4] is 100%. Moreover, the “fold change (FC)” value in data set [10] stood at 4.
`CC1(C)CCc2c(C(=O)N3CCOCC3)cc3c(OCCCOc4cccc(C(=O)O)c4)cccc3c2O1`: the survival at 72 h, 128 microg/ml in data set [1] came out at 90%. Further, the MIC stood at 32 µg/mL in data set [2]; 0.016 µg/mL in [3]; 0.016 µg/mL in [5]; 0.5 µg/mL in data set [6]; 2 µg/mL in [7]; 0.032 µg/mL in data set [8]. Also, the minimal inhibitory concentration (MIC) in data set [9] amounted to 0.5 µg/mL. Further, the “fold change (FC)” value in data set [12] and in [13] was 4 in each case.
Regarding `COc1ccc(OCCCOc2cccc3c4c(c(C(=O)N5CCOCC5)cc23)CCC(C)(C)O4)cc1`, the minimal inhibitory concentration (MIC) in [14] stood at 8 µg/mL; in [2], 32 µg/mL; in data set [3], 0.016 µg/mL; in data set [16], 0.032 µg/mL; in data set [5], 0.032 µg/mL; in data set [7] it was 2 µg/mL. In data set [9], the MIC was 1 µg/mL. Also, the “fold change (FC)” value is given as 4 in data set [15] and 8 in data set [17]. Besides, in [1], the survival at 72 h, 128 microg/ml was found to be 90%.
In the case of `CC1(C)CCc2c(C(=O)N3CCOCC3)cc3c(OCCN4CCN(c5ccccc5)CC4)cccc3c2O1`, the survival at 72 h, 128 microg/ml in data set [1] was 90%. Also, the MIC in data set [2] turned out to be 32 µg/mL; in data set [18], 0.5 µg/mL; in data set [19], 8 µg/mL; in data set [20], 0.032 µg/mL; in [5], 0.016 µg/mL; in data set [21], 16 µg/mL. Moreover, the MIC in data set [22] worked out at 0.032 µg/mL; in data set [7] it was 2 µg/mL; in data set [9], 1 µg/mL; in [23], 1 µg/mL; in [24], 0.5 µg/mL. In addition, the “fold change (FC)” value in [17] is 4.
